This note sets out measurements from US11046701B2, “Salt of cetagliptin, preparation method thereof, pharmaceutical composition, and use thereof” (CGENETECH (SUZHOU, CHINA) CO., LTD., priority 2018, dated 2021).

Structures are written as SMILES.

By inhibition is commonly meant the change of the read-out against control, counted positive when it falls.

For series [1] the following is noted: mouse, in vivo, po.
Description: A solution with a certain concentration was prepared from the crystal form B of the phosphate, and the administration volume was 10 mL/kg.
Experimental animals: C57BL16 mice aged for 5 weeks and weighed for about 13-16 g.
Grouping and administration scheme: the mice were fed adaptively and divided into a normal control group and a model group which were fed with high-fat feed (Research diets, D 12492). When the fasting blood glucose of the mice was greater than or equal to 7 mM, it was considered that the mice had become DIO mice. The DIO mice could be selected for the hypoglycemic effect test. The DIO mice were stratified and randomly grouped according to the blood glucose and the weight. […] The weight and the fasting blood glucose were measured weekly; the food amount, the remaining food amount and the food intake were recorded; the mice were fasted overnight at the end of administration, the blood was sampled, and the free fatty acid (NEFA), total cholesterol (TCHO), triglyceride (TG), insulin and DPPIV activity were measured by using serum.
Series [2] has as its target T1, serum DPPIV (Mus musculus, UniProt P28843). Description: Long-term administration on DIO mice: inhibition of serum DPPIV. It counts as in vivo, C57BL16 mice. Details: from tissue; host or cells: serum of diet-induced obese C57BL mice after 28 days of oral dosing. Particulars: after long-term administration. The source says: Table 18 was a total data table of the metabolic parameters.

Series [3] deals with T1, serum DPPIV. Description: PK/PD experiment of ICR mice: activity of serum DPPIV. The series is classed as in vivo, CD-1 (ICR) mice. More on the design: the plasma concentration and the DPPIV activity were detected by using plasma; from tissue; host or cells: blood plasma/serum of CD-1 (ICR) mice after oral dosing. Particulars: ICR mice, 0.1, 0.3, 1 and 3 mg/kg intragastric (FIG. 28). How it is done:
Experimental animals: CD-1 (ICR) mice aged for 4 weeks and weighed for about 18-22 g.
Grouping and administration scheme: the mice were fed adaptively, randomly grouped according to the weight on the day before experiment, and fasted overnight. […] After the experimental grouping, the group provided separately for detecting the initial basic value of DPPIV was carried out blood sampling, and other animals were intragastrically administrated with the drug at an administration volume of 10 mL/kg, the blood was sampled after the administration, and all other animals were stimulated with glucose administration; the blood was sampled at 20 min, 40 min, 60 min and 120 min after the glucose administration, respectively, and the plasma concentration and the DPPIV activity were detected by using plasma.

T1 sequence (P28843 38-760 limits assumed): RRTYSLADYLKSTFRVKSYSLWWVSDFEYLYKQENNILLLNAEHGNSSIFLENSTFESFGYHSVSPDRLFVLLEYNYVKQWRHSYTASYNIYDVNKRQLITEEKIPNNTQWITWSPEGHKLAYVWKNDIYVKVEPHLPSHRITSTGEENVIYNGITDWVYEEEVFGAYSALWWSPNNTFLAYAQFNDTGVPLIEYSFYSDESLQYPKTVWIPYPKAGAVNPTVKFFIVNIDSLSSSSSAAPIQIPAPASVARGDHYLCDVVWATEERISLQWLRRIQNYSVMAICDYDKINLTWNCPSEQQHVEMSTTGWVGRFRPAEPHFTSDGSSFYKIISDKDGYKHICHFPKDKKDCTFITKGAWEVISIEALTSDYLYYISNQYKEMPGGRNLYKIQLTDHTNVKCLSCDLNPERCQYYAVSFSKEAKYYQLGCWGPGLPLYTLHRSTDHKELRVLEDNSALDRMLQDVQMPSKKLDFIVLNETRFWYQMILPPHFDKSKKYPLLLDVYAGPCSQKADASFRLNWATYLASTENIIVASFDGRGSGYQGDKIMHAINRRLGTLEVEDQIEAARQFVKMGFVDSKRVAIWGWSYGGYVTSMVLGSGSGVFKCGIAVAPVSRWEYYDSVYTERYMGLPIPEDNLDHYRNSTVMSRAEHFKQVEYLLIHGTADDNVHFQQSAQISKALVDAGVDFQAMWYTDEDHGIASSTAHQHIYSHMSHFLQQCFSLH

Regarding `C[C@@H]1c2cnc(C(F)(F)F)n2CCN1C(=O)C[C@H](N)Cc1cc(F)c(F)cc1F` [DPPIV-P1, (8R)-7-[(3R)-3-amino-1-oxo-4-(2,4,5-trifluorophenyl)butyl]-5,6,7,8-tetrahydro-8-methyl-3-(trifluoromethyl)imidazo[1,5-a]pyrazine], in series [1], the “tolerance after long-term administration” value is “good in tolerance and not easy to induce hypoglycemia”. The “inhibition effect on the serum DPPIV compared with sitagliptin phosphate” value against serum DPPIV [2] is “obviously higher than that of sitagliptin phosphate”. Further, on serum DPPIV [2] (mouse, 0.3 mg/kg, vs model control group, read-out: inhibition rate against DPPIV (serum)), the inhibition at 0.3 mg/kg is 47.1%. Moreover, on serum DPPIV [2] (mouse, 3 mg/kg, vs model control group, read-out: inhibition rate against DPPIV (serum)), the inhibition at 3 mg/kg was found to be 82.7%. In addition, the inhibition at 30 mg/kg on serum DPPIV [2] (mouse, 30 mg/kg, vs model control group, read-out: inhibition rate against DPPIV (serum)) stood at 95.3%. Moreover, at serum DPPIV [3], the “influence on the activity of serum DPPIV” value was “good dose-effect relationship”.
